Results: patent US20260130933A1, “PHARMACEUTICAL COMPOSITION FOR PREVENTION OR TREATMENT OF NEPHROPATHY AND/OR DIABETES MELLITUS, COMPRISING ENAVOGLIFLOZIN” (DAEWOONG PHARMACEUTICAL CO., LTD., priority 2022, published 2026)

Test: Example 3: phase 3 trial, enavogliflozin 0.3 mg vs dapagliflozin 10 mg once a day for 24 weeks added to metformin and gemigliptin in patients with type 2 diabetes (same endpoints, rescue drug)
Assay type: in vivo, human
Description: 1) when Metformin (≥1,000 mg/Day) was Administered at a Constant Dose for at Least 8 Weeks Prior to Pre-Visit (Pre-Screening) • Metformin (≥1,000 mg/day) and gemigliptin (50 mg/day) were co-administered during the 8-week stabilization period. […] 4) when Metformin (≥1,000 mg/Day) and Gemigliptin (50 mg/Day) were Co-Administered at Constant Doses for at Least 8 Weeks Prior to Pre-Visit (Prescreening) • Without a separate stabilization period, Pre-visit (pre-screening) was Visit 1 (screening).
Subjects who met the inclusion/exclusion criteria continued to receive metformin and gemigliptin while receiving a placebo of the clinical trial drug in a single-blind (subject-blinded) state for a 2-week run-in period.
Here, the randomized subjects were stratified according to the administration therapy (co-administration with two or less agents (one or two agents) or three or more agents) of a conventional hypoglycemic agent (before washout of another hypoglycemic agent) within 24 weeks prior to obtaining written informed consent and by an HbA1c value (<8% or ≥8%) at Visit 1 (screening) measured in the central laboratory.
The randomized subjects were administered two tablets of the clinical trial drug corresponding to each administration group once a day, and then visited the institution at weeks 6, 12, 18, and 24 during the 24-week administration period to conduct efficacy and safety assessments. In addition, during the clinical trial period, they were instructed to exercise regularly and control their diet without changing their daily life patterns.
• 1) Change in HbA1c at week 24 after administration of clinical trial drug compared to Visit 2 (randomization)
• 1) Change in HbA1c at each time point of weeks 6, 12, and 18 after administration of clinical trial drug compared to Visit 2 (randomization) • 2) Change in FPG at each time point of weeks 6, 12, 18, and 24 after administration of clinical trial drug compared to Visit 2 (randomization) • 3) Proportion of subjects achieving HbA1c<7% at each time point of weeks 6, 12, 18, and 24 after administration of clinical trial drug • 4) Proportion of subjects achieving HbA1c<6.5% at each time point of weeks 6, 12, 18, and 24 after administration of clinical trial drug • 5) Proportion of subjects achieving therapeutic response (HbA1c change (HbA1c at Visit 2—HbA1c at each evaluation time point)>0.5% or HbA1c<7% at each evaluation time point compared to Visit 2 (randomization)) at each time point of weeks 6, 12, 18, and 24 after administration of clinical trial drug • 6) Proportion of subjects achieving therapeutic response (HbA1c change (HbA1c at Visit 2—HbA1c at each evaluation time point)>0.7% or HbA1c<7% at each evaluation time point compared to Visit 2 (randomization)) at each time point of weeks 6, 12, 18, and 24 after administration of clinical trial drug • 7) Proportion of subjects achieving therapeutic response (HbA1c change (HbA1c at Visit 2—HbA1c at each evaluation time point)>1% or HbA1c<7% at each evaluation time point compared to Visit 2 (randomization)) at each time point of weeks 6, 12, 18, and 24 after administration of clinical trial drug

[1] = week 6, modified per-protocol set 1, enavogliflozin 0.3 mg, dapagliflozin 10 mg
[2] = week 6, modified per-protocol set 2
[3] = week 6, modified per-protocol set 2, enavogliflozin 0.3 mg, dapagliflozin 10 mg
[4] = week 6, per-protocol set, enavogliflozin 0.3 mg, dapagliflozin 10 mg

CCOc1ccc(Cc2cc([C@@H]3O[C@H](CO)[C@@H](O)[C@H](O)[C@H]3O)ccc2Cl)cc1 [Dapagliflozin, reference compound]
HbA1c, Mean (SD) (Baseline, PPS): 7.83%
HbA1c, Median (Baseline, PPS): 7.64%
HbA1c change from baseline, ANCOVA LS mean (SE) (Week 24, PPS): −0.86 % p
HbA1c change from baseline, Mean (SD) (Week 24, PPS): −0.89 % p
HbA1c change from baseline, Median (Week 24, PPS): −0.86 % p
HbA1c, Mean (SD) (Week 24, PPS): 6.94%
HbA1c, Median (Week 24, PPS): 6.81%
FPG change from baseline, LS mean (SE) (week 6): −22.71(1.39) mg/dL
HDL-C change from baseline, LS mean (SE) (week 6): 1.13(0.56) mg/dL
HOMA-IR change from baseline, LS mean (SE) (week 6): −0.99(0.14)
HOMA-β change from baseline, LS mean (SE) (week 6): 3.20(3.04)
HbA1c change from baseline, LS mean (SE) (week 6): −0.70(0.03) % p
LDL-C change from baseline, LS mean (SE) (week 6): 1.91(1.78) mg/dL
UACR change from baseline, LS mean (SE) (week 6): −14.85(3.36) g/kg
UGCR change from baseline, LS mean (SE) (week 6): 45.75(2.14) mg/mg
adiponectin change from baseline, LS mean (SE) (week 6): 0.37(0.33) μg/mL
body weight change from baseline, LS mean (SE) (week 6): −1.80(0.16) kg
diastolic blood pressure change from baseline, LS mean (SE) (week 6): −1.88(0.67) mmHg
fasting C-peptide change from baseline, LS mean (SE) (week 6): −0.04(0.02) ng/mL
leptin change from baseline, LS mean (SE) (week 6): −2.03(0.45) ng/mL
systolic blood pressure change from baseline, LS mean (SE) (week 6): −3.49(0.87) mmHg
total cholesterol change from baseline, LS mean (SE) (week 6): 2.63(1.93) mg/dL
triglyceride change from baseline, LS mean (SE) (week 6): −5.39(4.38) mg/dL
Change from baseline in HDL-C, ANCOVA LS mean [1]: 1.13 mg/dL
Change from baseline in HDL-C, Mean [1]: 0.94 mg/dL
Change from baseline in HDL-C, Median [1]: 1.00 mg/dL
Change from baseline in LDL-C, ANCOVA LS mean [1]: 1.91 mg/dL
Change from baseline in LDL-C, Mean [1]: 1.40 mg/dL
Change from baseline in LDL-C, Median [1]: 1.00 mg/dL
Change from baseline in total cholesterol, ANCOVA LS mean [1]: 2.63 mg/dL
Change from baseline in total cholesterol, Mean [1]: 1.55 mg/dL
Change from baseline in total cholesterol, Median [1]: 2.00 mg/dL
Change from baseline in triglycerides, ANCOVA LS mean [1]: -5.39 mg/dL
Change from baseline in triglycerides, Mean [1]: -10.00 mg/dL
Change from baseline in triglycerides, Median [1]: 1.00 mg/dL
Fasting HDL-C, Mean [1]: 48.39 mg/dL
Fasting HDL-C, Median [1]: 48.00 mg/dL
Fasting LDL-C, Mean [1]: 78.50 mg/dL
Fasting LDL-C, Median [1]: 70.00 mg/dL
Fasting total cholesterol, Mean [1]: 145.04 mg/dL
Fasting triglycerides, Mean [1]: 121.81 mg/dL
Fasting triglycerides, Median [1]: 98.00 mg/dL
fasting Total cholesterol, Median [1]: 136.00 mg/dL
Change from baseline in diastolic blood pressure, ANCOVA LS mean [2]: −1.88 mmHg
Change from baseline in diastolic blood pressure, Mean [2]: −1.57 mmHg
Change from baseline in diastolic blood pressure, Median [2]: −2.00 mmHg
Diastolic blood pressure, Mean [2]: 72.20 mmHg
Diastolic blood pressure, Median [2]: 72.00 mmHg
Change from baseline in systolic blood pressure, ANCOVA LS mean [3]: −3.49 mmHg
Change from baseline in systolic blood pressure, Mean [3]: −3.23 mmHg
Change from baseline in systolic blood pressure, Median [3]: −3.50 mmHg
Systolic blood pressure, Mean [3]: 120.64 mmHg
Systolic blood pressure, Median [3]: 119.00 mmHg
Adiponectin, Mean (week 6, per-protocol set): 6.69 µg/mL
Adiponectin, Median (week 6, per-protocol set): 5.80 µg/mL
Change from baseline in HOMA-IR, ANCOVA LS mean (week 6, per-protocol set): −0.99
Change from baseline in HOMA-IR, Mean (week 6, per-protocol set): −0.92
Change from baseline in HOMA-IR, Median (week 6, per-protocol set): −0.72
Change from baseline in HOMA-β, ANCOVA LS mean (week 6, per-protocol set): 3.20
Change from baseline in HOMA-β, Mean (week 6, per-protocol set): 4.48
Change from baseline in HOMA-β, Median (week 6, per-protocol set): 5.30
Change from baseline in UACR, ANCOVA LS mean (week 6, per-protocol set): -14.85 g/kg
Change from baseline in UACR, Mean (week 6, per-protocol set): -7.25 g/kg
Change from baseline in UACR, Median (week 6, per-protocol set): -0.40 g/kg
Change from baseline in UGCR, ANCOVA LS mean (week 6, per-protocol set): 45.75 mg/mg
Change from baseline in UGCR, Mean (week 6, per-protocol set): 43.58 mg/mg
Change from baseline in UGCR, Median (week 6, per-protocol set): 42.62 mg/mg
Change from baseline in adiponectin, ANCOVA LS mean (week 6, per-protocol set): 0.37 µg/mL
Change from baseline in adiponectin, Mean (week 6, per-protocol set): 0.31 µg/mL
Change from baseline in adiponectin, Median (week 6, per-protocol set): 0.34 µg/mL
Change from baseline in leptin, ANCOVA LS mean (week 6, per-protocol set): -2.03 ng/mL
Change from baseline in leptin, Mean (week 6, per-protocol set): -2.04 ng/mL
Change from baseline in leptin, Median (week 6, per-protocol set): -1.26 ng/mL
HOMA-IR (insulin resistance), Mean (week 6, per-protocol set): 1.90
HOMA-IR (insulin resistance), Median (week 6, per-protocol set): 1.66
HOMA-β (beta-cell function), Mean (week 6, per-protocol set): 44.56
HOMA-β (beta-cell function), Median (week 6, per-protocol set): 36.75
Leptin, Mean (week 6, per-protocol set): 8.78 ng/mL
Leptin, Median (week 6, per-protocol set): 7.03 ng/mL
UACR, Mean (week 6, per-protocol set): 23.20 g/kg
UACR, Median (week 6, per-protocol set): 11.20 g/kg
UGCR, Mean (week 6, per-protocol set): 45.12 mg/mg
UGCR, Median (week 6, per-protocol set): 43.37 mg/mg
Body weight, Mean [4]: 65.20 kg
Change from baseline in FPG, ANCOVA LS mean [4]: -22.71 mg/dL
Change from baseline in FPG, Mean [4]: -22.87 mg/dL
Change from baseline in FPG, Median [4]: -18.50 mg/dL
Change from baseline in HbA1c, ANCOVA LS mean [4]: −0.70 % p
Change from baseline in HbA1c, Mean [4]: −0.72 % p
Change from baseline in HbA1c, Median [4]: −0.65 % p
Change from baseline in body weight, ANCOVA LS mean [4]: -1.80 kg
Change from baseline in body weight, Mean [4]: -1.68 kg
Change from baseline in body weight, Median [4]: -1.55 kg
Change from baseline in fasting C-peptide, ANCOVA LS mean [4]: -0.04 ng/mL
Change from baseline in fasting C-peptide, Mean [4]: -0.04 ng/mL
Change from baseline in fasting C-peptide, Median [4]: -0.03 ng/mL
FPG, Mean [4]: 117.64 mg/dL
FPG, Median [4]: 116.50 mg/dL
Fasting C-peptide, Mean [4]: 0.65 ng/mL
Fasting C-peptide, Median [4]: 0.63 ng/mL
HbA1c, Mean [4]: 7.10%
